Laboratory results taken from PubChem BioAssay AID328 (DTP/NCI, 2004).
“And” between values parts separate entries of the source, which are not always exact repeats. Equal entries are not always repeated. Inconclusive results and toxic doses are left out.

System: BDF1 mice, P388 leukemia ip, median survival T/C
Test: NCI In Vivo Anticancer Drug Screen. Data for tumor model P388 Leukemia (intraperitoneal) in B6D2F1 (BDF1) mice
Settings: endpoint: median survival time, higher = longer survival
Summary of the method: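 Each value expresses how treatment altered survival: treated-mouse outcome over vehicle-mouse outcome, both groups bearing the transplanted tumour.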

[1] = dose: 12.5 mg/kg/injection, schedule: Q01DX009 (ip), vehicle: saline
[2] = dose: 25.0 mg/kg/injection, schedule: Q01DX009 (ip), vehicle: saline
[3] = dose: 50.0 mg/kg/injection, schedule: Q01DX009 (ip), vehicle: saline with Tween-80
[4] = dose: 100.0 mg/kg/injection, schedule: Q01DX009 (ip), vehicle: saline with Tween-80
[5] = dose: 100.0 mg/kg/injection, schedule: Q01DX009 (ip), vehicle: Klucel (hydroxypropylcellulose) (HPC)
[6] = dose: 12.5 mg/kg/injection, schedule: Q01DX009 (ip), vehicle: Klucel (hydroxypropylcellulose) (HPC)
[7] = dose: 100.0 mg/kg/injection, schedule: Q04DX003 (ip), vehicle: saline with Tween-80
[8] = dose: 400.0 mg/kg/injection, schedule: Q04DX003 (ip), vehicle: saline with Tween-80
[9] = dose: 100.0 mg/kg/injection, schedule: Q04DX003 (ip), vehicle: Klucel (hydroxypropylcellulose) (HPC)
[10] = dose: 200.0 mg/kg/injection, schedule: Q04DX003 (ip), vehicle: Klucel (hydroxypropylcellulose) (HPC)
[11] = dose: 400.0 mg/kg/injection, schedule: Q04DX003 (ip), vehicle: Klucel (hydroxypropylcellulose) (HPC)

CCN(C(=O)CCl)C(C)(C)C(SSSC(c1ccc(Cl)cc1)C(C)(C)N(CC)C(=O)CCl)c1ccc(Cl)cc1 (centres undefined)
T/C [1]: 118 % of control
T/C (dose: 16.5 mg/kg/injection, schedule: Q01DX009 (ip), vehicle: saline): 116 % of control
T/C [2]: 116 % of control
T/C (dose: 37.5 mg/kg/injection, schedule: Q01DX009 (ip), vehicle: saline): 116 % of control
T/C (dose: 50.0 mg/kg/injection, schedule: Q01DX009 (ip), vehicle: saline): 118 % of control

CCN(CCO)c1ccc(N)cc1C
T/C (dose: 1.56 mg/kg/injection, schedule: Q01DX009 (ip), vehicle: saline): 100 % of control
T/C (dose: 3.13 mg/kg/injection, schedule: Q01DX009 (ip), vehicle: saline): 100 % of control
T/C (dose: 6.25 mg/kg/injection, schedule: Q01DX009 (ip), vehicle: saline): 90 % of control

Nc1c(C(=O)O)[nH]c(=O)[nH]c1=O
T/C [3]: 113 % of control
T/C [4]: 219 % of control

CNC(=S)N/N=C(\C)c1ccccn1
T/C (dose: 6.25 mg/kg/injection, schedule: Q01DX009 (ip), vehicle: saline with Tween-80): 102 % of control
T/C (dose: 12.5 mg/kg/injection, schedule: Q01DX009 (ip), vehicle: saline with Tween-80): 121 % of control
T/C (dose: 25.0 mg/kg/injection, schedule: Q01DX009 (ip), vehicle: saline with Tween-80): 102 % of control

C=C1C2CCC3(C)C(c4ccoc4)OC(=O)CC13OC1CC(=O)C(C)(C)C(CC(=O)OC)C12C (centres undefined)
T/C (dose: 2.0 mg/kg/injection, schedule: Q01DX009 (ip), vehicle: Klucel (hydroxypropylcellulose) (HPC)): 100 % of control
T/C (dose: 4.0 mg/kg/injection, schedule: Q01DX009 (ip), vehicle: Klucel (hydroxypropylcellulose) (HPC)): 100 % of control
T/C (dose: 8.0 mg/kg/injection, schedule: Q01DX009 (ip), vehicle: Klucel (hydroxypropylcellulose) (HPC)): 96 % of control
T/C (dose: 16.0 mg/kg/injection, schedule: Q01DX009 (ip), vehicle: Klucel (hydroxypropylcellulose) (HPC)): 100 % of control
T/C (dose: 32.0 mg/kg/injection, schedule: Q01DX009 (ip), vehicle: Klucel (hydroxypropylcellulose) (HPC)): 89 % of control

O=S1(=O)CC(Cl)(Br)C1 (tested in a mixture with another compound)
T/C [5]: 91 % of control

CC[C@@H](C(=O)[C@@H](C)[C@@H](O)[C@H](C)CCc1ccc(C)c(O)c1C(=O)O)[C@H]1O[C@](CC)([C@H]2CC[C@](O)(CC)[C@H](C)O2)C[C@@H]1C
T/C (dose: 3.12 mg/kg/injection, schedule: Q01DX009 (ip), vehicle: Klucel (hydroxypropylcellulose) (HPC)): 108 % of control
T/C (dose: 6.25 mg/kg/injection, schedule: Q01DX009 (ip), vehicle: Klucel (hydroxypropylcellulose) (HPC)): 110 % of control
T/C [6]: 118 % of control and 119 % of control

C/C=C/c1ccc2ccc[n+](C)c2c1O
T/C (dose: 22.0 mg/kg/injection, schedule: Q04DX003 (ip), vehicle: saline sonified): 100 % of control
T/C (dose: 25.0 mg/kg/injection, schedule: Q04DX003 (ip), vehicle: saline sonified): 110 % of control
T/C (dose: 33.0 mg/kg/injection, schedule: Q04DX003 (ip), vehicle: saline sonified): 113 % of control
T/C (dose: 75.0 mg/kg/injection, schedule: Q04DX003 (ip), vehicle: saline sonified): 118 % of control

NS(=O)(=O)c1ccc(NC2OCC(O)C(O)C2O)cc1 (centres undefined)
T/C [4]: 95 % of control
T/C (dose: 200.0 mg/kg/injection, schedule: Q01DX009 (ip), vehicle: saline with Tween-80): 90 % of control
T/C (dose: 400.0 mg/kg/injection, schedule: Q01DX009 (ip), vehicle: saline with Tween-80): 100 % of control

CCOC(=O)C(=CN1CCCCCC1)C(=O)OCC
T/C [7]: 109 % of control
T/C (dose: 200.0 mg/kg/injection, schedule: Q04DX003 (ip), vehicle: saline with Tween-80): 109 % of control
T/C [8]: 113 % of control

ClC1(Cl)Cc2ccccc21
T/C [7]: 109 % of control
T/C (dose: 266.0 mg/kg/injection, schedule: Q04DX003 (ip), vehicle: saline with Tween-80): 108 % of control
T/C [8]: 108 % of control
T/C (dose: 600.0 mg/kg/injection, schedule: Q04DX003 (ip), vehicle: saline with Tween-80): 120 % of control

CC(=O)Nc1ccc(/C=C\c2ccnc3ccccc23)cc1
T/C (dose: 33.3 mg/kg/injection, schedule: Q04DX002 (ip), vehicle: saline with Tween-80): 111 % of control
T/C (dose: 50.0 mg/kg/injection, schedule: Q04DX002 (ip), vehicle: saline with Tween-80): 107 % of control
T/C (dose: 75.0 mg/kg/injection, schedule: Q04DX002 (ip), vehicle: saline with Tween-80): 112 % of control

COC1C(C)OC(OC2CC(C)(O)Cc3cc4c(c(O)c32)C(=O)c2c(O)cc3c(c2C4=O)OC2OC3(C)C(O)C(N(C)C)C2O)C(OC)C1(C)OC (centres undefined)
T/C (dose: 1.25 mg/kg/injection, schedule: Q01DX009 (ip), vehicle: other): 122 % of control
T/C (dose: 4.32 mg/kg/injection, schedule: Q04DX003 (ip), vehicle: water): 169 % of control
T/C (dose: 5.0 mg/kg/injection, schedule: Q01DX009 (ip), vehicle: other): 154 % of control
T/C (dose: 7.2 mg/kg/injection, schedule: Q04DX003 (ip), vehicle: water): 183 % of control
T/C (dose: 10.0 mg/kg/injection, schedule: Q01DX009 (ip), vehicle: other): 151 % of control
T/C (dose: 20.0 mg/kg/injection, schedule: Q04DX003 (ip), vehicle: water): 111 % of control

O=C(/C=C/c1ccc2c(c1)OCO2)/C=C/c1ccc2c(c1)OCO2
T/C [1]: 101 % of control
T/C (dose: 12.5 mg/kg/injection, schedule: Q04DX003 (ip), vehicle: saline): 105 % of control
T/C [2]: 96 % of control
T/C (dose: 25.0 mg/kg/injection, schedule: Q04DX003 (ip), vehicle: saline): 112 % of control
T/C (dose: 50.0 mg/kg/injection, schedule: Q04DX003 (ip), vehicle: saline): 114 % of control
T/C (dose: 100.0 mg/kg/injection, schedule: Q04DX003 (ip), vehicle: saline): 114 % of control
T/C (dose: 200.0 mg/kg/injection, schedule: Q01DX009 (ip), vehicle: saline): 92 % of control
T/C (dose: 200.0 mg/kg/injection, schedule: Q04DX003 (ip), vehicle: saline): 114 % of control

O=C(NC1CCCCC1)O/N=C/c1ccccn1
T/C (dose: 100.0 mg/kg/injection, schedule: Q01DX001 (ip), vehicle: other): 87 % of control
T/C (dose: 400.0 mg/kg/injection, schedule: Q01DX001 (ip), vehicle: other): 91 % of control

NC(=O)c1cn[nH]c1N
T/C [6]: 95 % of control
T/C (dose: 25.0 mg/kg/injection, schedule: Q01DX009 (ip), vehicle: Klucel (hydroxypropylcellulose) (HPC)): 87 % of control
T/C (dose: 50.0 mg/kg/injection, schedule: Q01DX009 (ip), vehicle: Klucel (hydroxypropylcellulose) (HPC)): 91 % of control
T/C [9]: 104 % of control
T/C [10]: 100 % of control
T/C [11]: 113 % of control

CS(=O)(=O)Nc1ccc(NS(C)(=O)=O)c(SCc2ccccc2)c1
T/C (dose: 100.0 mg/kg/injection, schedule: Q01DX001 (ip), vehicle: Klucel (hydroxypropylcellulose) (HPC)): 100 % of control
T/C (dose: 200.0 mg/kg/injection, schedule: Q01DX001 (ip), vehicle: Klucel (hydroxypropylcellulose) (HPC)): 100 % of control
T/C (dose: 400.0 mg/kg/injection, schedule: Q01DX001 (ip), vehicle: Klucel (hydroxypropylcellulose) (HPC)): 100 % of control

CN1C(C)(C)CC(O)(C(O)(c2ccccc2)c2ccccc2)CC1(C)C
T/C (dose: 12.5 mg/kg/injection, schedule: Q04DX003 (ip), vehicle: Klucel (hydroxypropylcellulose) (HPC)): 109 % of control
T/C (dose: 25.0 mg/kg/injection, schedule: Q04DX003 (ip), vehicle: Klucel (hydroxypropylcellulose) (HPC)): 109 % of control
T/C (dose: 50.0 mg/kg/injection, schedule: Q04DX003 (ip), vehicle: Klucel (hydroxypropylcellulose) (HPC)): 113 % of control

CCOC(CN1CCN(CC(C)C(=O)c2ccccc2)CC1)c1ccccc1 (centres undefined)
T/C [3]: 109 % of control
T/C [4]: 118 % of control

CCOC(=O)Nc1cc2c(c(N)n1)N=C(c1ccccc1)CN2
T/C (dose: 1.0 mg/kg/injection, schedule: Q01DX009 (ip), vehicle: saline with Tween-80): 115 % of control
T/C (dose: 2.0 mg/kg/injection, schedule: Q01DX009 (ip), vehicle: saline with Tween-80): 151 % of control
T/C (dose: 3.0 mg/kg/injection, schedule: Q01DX009 (ip), vehicle: saline with Tween-80): 151 % of control
T/C (dose: 3.0 mg/kg/injection, schedule: Q04DX003 (ip), vehicle: saline with Tween-80): 117 % of control

Cc1ccc(N=Cc2ccccc2)cc1
T/C [5]: 95 % of control
T/C [9]: 100 % of control
T/C (dose: 200.0 mg/kg/injection, schedule: Q01DX009 (ip), vehicle: Klucel (hydroxypropylcellulose) (HPC)): 100 % of control
T/C [10]: 108 % of control
T/C (dose: 400.0 mg/kg/injection, schedule: Q01DX009 (ip), vehicle: Klucel (hydroxypropylcellulose) (HPC)): 90 % of control
T/C [11]: 108 % of control
